# Experimental data taken from article PMC4840437, “Crystal Structures and Binding Dynamics of Odorant-Binding Protein 3 from two aphid species Megoura viciae and Nasonovia ribisnigri” (Scientific Reports, 2016).
# Where two headings read alike, the source gives them in different places.
# Tests used:
# MvicOBP3 [1] = target: T1, MvicOBP3 (Megoura viciae, UniProt A0A0S2E5N6); experiment: Competitive fluorescence binding assay (NPN displacement)
# T1 sequence (A0A0S2E5N6 2-122): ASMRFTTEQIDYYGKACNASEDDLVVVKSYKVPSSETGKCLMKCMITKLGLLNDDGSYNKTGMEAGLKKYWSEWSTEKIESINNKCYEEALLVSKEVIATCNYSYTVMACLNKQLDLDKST
# Protocol: (§1) Proteins were dissolved in 20 mM Tris-HCl buffer pH 7.4 and emission fluorescence spectra were recorded on a LS50 Luminescence Spectrometer (PerkinElmer, Buckinghamshire, UK) at 22 °C in a right angle configuration, with a 1 cm light path quartz cuvette and 5–10 nm slits for excitation and emission. […] The probe was excited at 337 nm and emission spectra were recorded between 380 and 450 nm. […] For determining binding constants, the intensity values corresponding to the maximum fluorescence emission were plotted against free ligand concentrations. We use GraphPad (http://www.graphpad.com/guides/prism/6/curve-fitting/index.htm?reg_one_site_competition_ki.htm) to determine the equilibrium dissociation constant Ki of ligand by measuring its competition for NPN and nonlinear regression curve fitting to the one site competitive binding model. This model fits the Ki of the ligand directly using the fixed concentration of NPN and the dissociation constant for NPN KNPN obtained from a direct fluorescence titration and nonlinear regression curve fitting to one site binding model Y = Bmax*X/(KNPN + X) + NS*X (X is the NPN concentration, Bmax is the maximum specific binding in the same units as Y, NS is the slope of nonspecific binding in Y units divided by X units). The corrected Ki is fitted directly rather than fitting an IC50 and modifying it with the Cheng and Prusoff equation[48]. The analysis assumes that the protein has one binding site and 100% active, and that the binding is reversible and at equilibrium. Tested compounds were EβF (Bedoukian Research, Danbury, CT, USA), β-pinene, (−)-α-pinene and (+)-limonene (Sigma, St. Louis, MO).
# NribOBP3 [2] = target: T2, NribOBP3 (Nasonovia ribisnigri, UniProt A0A0M4AUH6); experiment: as above
# T2 sequence (A0A0M4AUH6 1-119): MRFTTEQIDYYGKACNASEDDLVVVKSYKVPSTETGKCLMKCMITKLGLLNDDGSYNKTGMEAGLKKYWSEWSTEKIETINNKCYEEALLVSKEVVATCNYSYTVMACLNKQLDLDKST
# Protocol: as §1
# MvicOBP3 [3] = target: T1, MvicOBP3; experiment: Direct fluorescence titration of the probe NPN; type: binding; conditions: recombinant MvicOBP3, 2 μM protein, 20 mM Tris-HCl pH 7.4, 22 °C; read-out: Kd of fluorescent probe NPN
# Protocol: as §1, with “The analysis assumes that the protein has one binding site and 100% active, and that the binding is reversible and at equilibrium. Tested compounds were EβF (Bedoukian Research, Danbury, CT, USA), β-pinene, (−)-α-pinene and (+)-limonene (Sigma, St. Louis, MO).” left out
# NribOBP3 [4] = target: T2, NribOBP3; experiment: Direct fluorescence titration of the probe NPN; type: binding; conditions: recombinant NribOBP3, 2 μM protein, 20 mM Tris-HCl pH 7.4, 22 °C; read-out: Kd of fluorescent probe NPN
# Protocol: as §1, with “The analysis assumes that the protein has one binding site and 100% active, and that the binding is reversible and at equilibrium. Tested compounds were EβF (Bedoukian Research, Danbury, CT, USA), β-pinene, (−)-α-pinene and (+)-limonene (Sigma, St. Louis, MO).” left out
# [5] = displacement of NPN (2 μM) from MvicOBP3/NPN complex, one site competitive binding model, read-out: Competitive inhibitor binding constant (Ki)
# [6] = displacement of NPN (2 μM) from NribOBP3/NPN complex, one site competitive binding model, read-out: Competitive inhibitor binding constant (Ki)
SMILES,Ki (MvicOBP3 [1]; [5]),Ki (NribOBP3 [2]; [6]),also measured
"C=C(C)C1CC=C(C)CC1 (single isomer, unassigned; (+)) [(+)-limonene]",2500 nM,,
C=CC(=C)CC/C=C(\C)CCC=C(C)C [(E)-β-farnesene],100 nM,5200 nM,
CC1=CCC2CC1C2(C)C (stereo not drawn) [(−)-α-pinene],1800 nM,20200 nM,
"c1ccc(Nc2cccc3ccccc23)cc1 [NPN, N-phenyl-1-naphthylamine]",,,Kd (MvicOBP3 [3]): 1900 nM; Kd (NribOBP3 [4]): 9000 nM
C=C1CCC2CC1C2(C)C (stereo not drawn) [β-pinene],,,Ki (MvicOBP3 [1]): 2300 nM; Ki (NribOBP3 [2]): 30700 nM
